The source made the active and inactive calls. No cut-off for these calls is given here.
Key:
[1] = target: T1, Peroxisome proliferator-activated receptor gamma (Homo sapiens) (UniProt P37231); experiment: Agonist activity at human PPARgamma at 10 uM; conditions: filed as agonist
T1 sequence (whole entry): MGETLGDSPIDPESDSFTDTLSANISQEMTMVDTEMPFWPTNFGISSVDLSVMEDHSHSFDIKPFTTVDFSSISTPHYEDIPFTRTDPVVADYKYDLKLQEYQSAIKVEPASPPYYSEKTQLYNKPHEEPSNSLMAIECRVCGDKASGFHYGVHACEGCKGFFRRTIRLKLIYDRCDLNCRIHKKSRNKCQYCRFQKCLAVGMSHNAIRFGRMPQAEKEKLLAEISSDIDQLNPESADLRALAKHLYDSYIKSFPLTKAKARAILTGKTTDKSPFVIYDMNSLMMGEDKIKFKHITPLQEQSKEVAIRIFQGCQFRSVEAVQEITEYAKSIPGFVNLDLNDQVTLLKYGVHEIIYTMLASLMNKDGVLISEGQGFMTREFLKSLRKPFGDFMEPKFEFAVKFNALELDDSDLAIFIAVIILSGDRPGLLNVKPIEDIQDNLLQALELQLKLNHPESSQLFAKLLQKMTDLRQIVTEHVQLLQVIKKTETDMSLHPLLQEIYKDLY

[2] = target: T2, Peroxisome proliferator-activated receptor alpha (Homo sapiens) (UniProt Q07869); experiment: Agonist activity at human PPARalpha at 10 uM; conditions: filed as agonist
T2 sequence (whole entry): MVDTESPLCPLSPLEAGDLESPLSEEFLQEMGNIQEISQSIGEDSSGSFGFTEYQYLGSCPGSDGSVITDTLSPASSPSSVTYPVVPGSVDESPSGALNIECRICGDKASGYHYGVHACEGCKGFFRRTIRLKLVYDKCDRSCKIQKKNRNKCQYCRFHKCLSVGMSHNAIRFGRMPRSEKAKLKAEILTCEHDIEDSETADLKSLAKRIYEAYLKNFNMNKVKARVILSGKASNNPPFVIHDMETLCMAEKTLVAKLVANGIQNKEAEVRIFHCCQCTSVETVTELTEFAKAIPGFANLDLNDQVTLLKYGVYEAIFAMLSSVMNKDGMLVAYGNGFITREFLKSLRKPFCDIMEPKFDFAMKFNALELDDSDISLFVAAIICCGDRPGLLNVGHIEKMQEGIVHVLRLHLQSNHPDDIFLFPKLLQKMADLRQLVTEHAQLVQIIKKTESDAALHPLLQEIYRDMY

[3] = species on record: Homo sapiens; experiment: Selectivity for agonist activity at human PPARalpha over agonist activity at human PPARgamma

Row | Activity [1] | Activity [2] | Selectivity ratio [3] | Compound
1 | Active | Active | – | CCOC(=O)/C(=C/CC/C(C)=C/CCC1(C)CCc2cc(OCc3ccc(F)cc3)ccc2O1)OCC (configuration not stated)
2 | – | Active | – | Cc1cccc(Nc2cc(Cl)nc(SCC(=O)O)n2)c1C
3 | Active | Active | 0.64 | CCO/C(=C\CC/C(C)=C/CCC1(C)CCc2cc(OCc3ccccc3)ccc2O1)C(=O)O (configuration not stated)
4 | Active | Active | – | CCOC(=O)/C(=C/CC/C(C)=C/CCC1(C)CCc2cc(OCc3ccccc3)ccc2O1)OCC(F)(F)F (configuration not stated)
5 | Active | Active | – | CCCOc1ccc2c(c1)CCC(C)(CC/C=C(\C)CC/C=C(\OCC)C(=O)OCC)O2 (configuration not stated)
6 | Active | Active | 1.73 | CC1(CC/C=C(\OCC(F)(F)F)C(=O)O)CCc2cc(OCc3ccccc3)ccc2O1 (configuration not stated)
7 | Active | Active | – | CCOC(=O)/C(=C/CC/C(C)=C/CCC1(C)CCc2cc(OCc3ccccc3)ccc2O1)OCC (configuration not stated)
8 | Active | Active | – | CCOC(=O)/C(=C/CCC1(C)CCc2cc(OCc3ccccc3)ccc2O1)OCC(F)(F)F (configuration not stated)

From ChEMBL document CHEMBL4842396, “Synthesis of 2-Prenylated Alkoxylated Benzopyrans by Horner-Wadsworth-Emmons Olefination with PPARα/γ Agonist Activity” (ACS Med Chem Lett, 2021)
